Common to all, as to format: cell-based
In one assay the test system is S. aureus ATCC 25923. Briefly: Antibacterial assay, NCCLS M7-T2 microdilution (Example 15), MIC. Particulars: Table XI; Mueller Hinton broth, 16-20 hours 37° C., 1-5×10^5 CFUs/ml. The method, then:
(§1) The procedure for the following antibacterial assay is based upon the guidelines of the National Committee for Clinical Laboratory Standards, Document M7-T2, Volume 8, No. 8, 1988.
(§2) Stock solutions of the following Peptides (SEQ ID NO:4) and (SEQ ID NO:64) through (SEQ ID NO:68) in accordance with the present invention are prepared at a concentration of 512 μg/ml in sterile deionized distilled water and stored at -70° C.
(§3) The stock peptide solution was diluted in serial dilutions (1:2) down the wells of a microtiter plate so that the final concentrations of peptides in the wells were 0.25, 0.50, 1, 2, 4, 8, 16, 32, 64, 128, and 256 μg/ml. 1-5×10^5 CFUs/ml of either S. aureus ATCC 25923, E. coli ATCC 25922, or P. aeruginosa ATCC 27853 were added to the wells in full strength Mueller Hinton broth (BBL 11443) from a mid-log culture. The inoculum is standarized spectrophotometrically at 600 nm and is verified by colony counts. […] Minimal inhibitory concentration is defined as the lowest concentration of peptide which produces a clear well in the microtiter plate.
(§4) For purposes of explanation of Table XI below, S is the MIC of the peptide against S. aureus, P is the MIC of the peptide against P. aeruginosa, and E is the MIC of the peptide against E. coli.

The test system of a further assay is E. coli ATCC 25922. The description is as above. The following applies: Table XI; Mueller Hinton broth, 16-20 hours 37° C., 1-5×10^5 CFUs/ml. As for the experimental part: as §1, §2, §3, §4
The next assay relates to P. aeruginosa ATCC 27853. The assay is described as above. The following applies: Table XI; Mueller Hinton broth, 16-20 hours 37° C., 1-5×10^5 CFUs/ml. As for the experimental part:
as §1, §2, §3, §4

The subject of assay [1] is Staphylococcus epidermidis. Briefly: Antimicrobial assay for deletion analogues (Example 10), MIC. The following applies: Table VII; 3.0×10^5 CFU/ml, 20 hours, LB medium. As for the experimental part: (§5) For the deletion analogues of the parent peptide further described in Examples 11 and 12, antimicrobial assays were carried out in 96-well tissue culture plates. Each well was incubated with a given microorganism (Escherichia coli, Staphylococcus epidermidis, Pseudomonas aeruginosa, or Staphylococcus aureus) suspended in LB medium. Upon addition of the parent peptide or its deletion analogues (dissolved in 1×PBS<pH7.0), each well contained a final cell density of 1.3×10^5 colony forming units (CFU)/ml of E. coli, or 3.5×10^5 CFU/ml P.aeruginosa, or 3.9×10^5 CFU/ml S. Aureus or 3.0×10^5 CFU/ml S. epidermidis. The final peptide concentrations ranged from 1.5 μg/ml to greater than 100 μg/ml. Addition of peptide to the wells was defined as time zero. At twenty hours, the plates were placed in a Titertek Multiskan apparatus and the O.D. 620 determined. The plates as well as the initial innoculum were incubated at 37° C. Five wells per plate contained medium alone, whereas five others contained medium plus cells. These controls were used to eliminate the possibility of medium contamination, while providing a measure of uninhibited growth of the microorganisms. The degree of peptide activity was determined by comparing the deletion analogues with uninhibited growth of the control cells over a twenty-hour period. The effective growth inhibitation of the deletion analogues is listed in the examples and tables below.

For assay [2], the system named is Escherichia coli. Described as above. The following applies: Table VII; 1.3×10^5 CFU/ml, 20 hours, LB medium. As for the experimental part: as §5
For assay [3], the system named is Pseudomonas aeruginosa. The description is as above. The following applies: Table VII; 3.5×10^5 CFU/ml, 20 hours, LB medium. The method, then:
as §5

The next assay concerns Staphylococcus aureus. Described as above. The following applies: Table VII; 3.9×10^5 CFU/ml, 20 hours, LB medium. The method, then: as §5
The test system of assay [4] is Escherichia coli. The following applies: 20 hours, LB medium. As for the experimental part: (§6) For the following Examples 3-9, antimicrobial assays were carried out in 96-well tissue culture plates. Each well was incubated with a given microorganism (Escherichia coli, Staphylococcus epidermidis, or Pseudomonas aeruginosa) suspended in LB medium. Upon the addition of the parent peptide having the structural formula hereinabove described, or its substitution analogues, or of Peptide I (dissolved in 1 X PBS, pH 7.0) each well contained a final cell density of 1.0×10^6 colony forming units (CFU)/ml. The final peptide concentrations ranged from 1.5 μg/ml to greater than 100 μg/ml.
(§7) Addition of peptides to the wells was defined as time zero. At twenty hours, the plates were placed in a Titertek Multiskan apparatus and the O.D.620 determined. The plates as well as the initial innoculum were incubated at 37° C.
(§8) Five wells per plate contained media alone, while five others contained medium plus cells. These controls were used to eliminate the possibility of media contamination while providing a measure of uninhibited growth of the microorganisms.
(§9) The degree of peptide activity was determined by comparing the substitution analogues with uninhibited growth of the control cells over a twenty-hour period.
(§10) as hereinabove described and analogues thereof wherein a methionine sulfoxide residue was substituted for various amino acid residues of the parent peptide were prepared as hereinabove described in Example 1 and tested for minimum inhibitory concentration with respect to E. coli, P. aeruginosa, and S. epidermidis at a concentration given in μg/ml, and for percent hemolysis of human red blood cells as hereinabove described in Example 2. The minimum inhibitory concentration and percent hemolysis (at a concentration of 100 μg/ml) are listed below in Table I. As used herein, the heading "Amino Acid Residue Substituted" refers to the number of the amino acid residue in the peptide which is substituted with a desired amino acid residue. All other residues remain the same as that of the normal peptide sequence. The term "Minimum Inhibitory Concentration" (MIC) as used herein indicates the minimum concentration of peptide in μg/ml needed to achieve 100 percent effective growth inhibition of the organism.

Assay [5] has as its system Pseudomonas aeruginosa. The following applies: 20 hours, LB medium. The method, then: as §6, §7, §8, §9, §10
Assay [6] concerns Staphylococcus epidermidis. Put plainly: Antimicrobial assay in 96-well plates, LB medium (Example 2), MIC. Particulars: 20 hours.
Setting [7] is: Table I, 100 percent growth inhibition, 1.0×10^6 CFU/ml.
Where [8] appears, read: Table VI, methionine sulfoxide diastereomer fractions.

“And” between values parts separate entries of the source, which are not always exact repeats. Identical values can stand only once. Like-named read-outs stand apart in the source and are kept apart here. Square brackets hold non-standard residues; d marks the D form. Ends that are not written are not given here. Met(O) = CS(=O)CC[C@H](N)C(=O)O

For “Ac-LLKKLKKLLKKLLKLL-NH2 [X-(SEQ ID NO: 4) --NH2]”, the “MIC S (S. aureus)” value against S. aureus ATCC 25923 came to 32 µg/mL. For the same substance, the “MIC E (E. coli)” value against E. coli ATCC 25922 was found to be 32 µg/mL. Moreover, the “MIC P (P. aeruginosa)” value in the assay on P. aeruginosa ATCC 27853 was found to be 64 µg/mL.
Consider “Ac-LKKLLKKLKKLLKKL-NH2 [X-(SEQ ID NO: 66) --NH2]”, for which the “MIC S (S. aureus)” value in the assay on S. aureus ATCC 25923 turned out to be 8 µg/mL. The “MIC E (E. coli)” value with E. coli ATCC 25922 amounted to 8 µg/mL. In addition, the “MIC P (P. aeruginosa)” value against P. aeruginosa ATCC 27853 was 16 µg/mL.
As for “Ac-LKLLKKLLKKGKKLLKKL-NH2 [X-(SEQ ID NO: 68) --NH2]”, the “MIC S (S. aureus)” value against S. aureus ATCC 25923 was determined as 8 µg/mL. The “MIC E (E. coli)” value in the assay with E. coli ATCC 25922 was found to be 16 µg/mL. For the same substance, the “MIC P (P. aeruginosa)” value against P. aeruginosa ATCC 27853 came to 8 µg/mL.
Consider “LLKKLKKLLKKLLKLL-NH2 [(SEQ ID NO: 4) --NH2]”, for which the “MIC S (S. aureus)” value against S. aureus ATCC 25923 is 32 µg/mL. Moreover, the “MIC E (E. coli)” value in the assay with E. coli ATCC 25922 came to 32 µg/mL. Also, the “MIC P (P. aeruginosa)” value with P. aeruginosa ATCC 27853 turned out to be 64 µg/mL.
Turning to “Ac-KKLLKKLKKLLKKL-NH2 [X-(SEQ ID NO: 65) --NH2]”, the “MIC S (S. aureus)” value with S. aureus ATCC 25923 was determined as 16 µg/mL. Further, the “MIC E (E. coli)” value in the assay on E. coli ATCC 25922 is 32 µg/mL. Also, the “MIC P (P. aeruginosa)” value with P. aeruginosa ATCC 27853 was 16 µg/mL and 32 µg/mL.
Turning to “Ac-LKLLKKLLKKLKKLLKKL-NH2 [None (parent)]”, the “Minimum Inhibitory Concentration S. epidermidis” value in assay [1] and in assay [6] (setting [7]) was 2.5 µg/mL in each case. For the same substance, the “Minimum Inhibitory Concentration E. coli” value with Escherichia coli [2] and in the assay on Escherichia coli [4] (setting [7]) was 10 µg/mL in each case. Besides, the “Minimum Inhibitory Concentration P. Aeruginosa” value in the assay with Pseudomonas aeruginosa [3] and with Pseudomonas aeruginosa [5] (setting [7]) was 75 µg/mL each time. In the assay with Staphylococcus aureus, the “Minimum Inhibitory Concentration S. aureus” value amounted to 128 µg/mL.
For “11 (SEQ ID NO: 15) 70/30: residue 11 methionine sulfoxide analogue, fraction by proportion of L-methionine-L-/D-sulfoxide (assignment undetermined) (LKLLKKLLKK[Met(O)]KKLLKKL; also: sulfoxide L-/D- 70/30 mixture, assignment undetermined)”, in the assay on Escherichia coli [4] (setting [8]), the “Min. Inhibitory Concentration E. Coli” value is 10 µg/mL. In addition, the “Min. Inhibitory Concentration P. Aeruginosa” value with Pseudomonas aeruginosa [5] (setting [8]) came out at 2.5 µg/mL. Besides, in [6] (setting [8]), the “Min. Inhibitory Concentration S. epidemidia” value is 2 µg/mL.

These data come from patent US5294605A, “Amphiphilic peptide compositions and analogues thereof” (The Scripps Research Institute, priority 1991, dated 1994).
